Test in all cases: Bliss excess, mean over the matrix (fraction); higher = more synergy
Assay [1] deals with OPM-2 (Plasma Cell Myeloma). In short, it runs like this: (§1)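 Bliss excess equals the observed combination effect minus the expected value EA + EB − EA·EB, where EA and EB are the effects of each agent alone. Combination Emax is the second-highest inhibition within the matrix. Inhibition was scaled from CellTiter-Glo 2.0 luminescence, with 0 set by vehicle wells and 1 by blank wells, after 72 hours of two-drug dosing of cells plated in 1536-well plates.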

Assay [2] concerns FADU (Head and Neck Carcinoma). In short, it runs like this:
as §1

In assay [3] the test system is HSC-39 (Gastric Carcinoma). A digest of the protocol: as §1
In assay [4] the test system is NCI-H446 (Small Cell Lung Carcinoma). A digest of the protocol:
as §1

Assay [5] concerns L-1236 (Hodgkin's Lymphoma). In short, it runs like this:
as §1

For assay [6], the system named is LXF-289 (Lung Adenocarcinoma). A digest of the protocol:
as §1

For the compound `CN(C)CCCOc1ccc(-c2ccc3ncc4c(c3c2)n(C2CCOCC2)c(=O)n4C)cn1` [AZD0156] + C=CCn1c(=O)c2cnc(Nc3ccc(N4CCN(C)CC4)cc3)nc2n1-c1cccc(C(C)(C)O)n1 [AZD1775] (first compound max 1 µM, partner max 1 µM), the Bliss excess is -0.0607 in assay [1]; 0.0316 in assay [2]; -0.0144 in assay [3]; -0.0399 in assay [4]; -0.0514 in assay [5]; 0.0066 in assay [6].
With `CN(C)CCCOc1ccc(-c2ccc3ncc4c(c3c2)n(C2CCOCC2)c(=O)n4C)cn1` [AZD0156] + CCN(CCO)CCCOc1ccc2c(Nc3cc(CC(=O)Nc4cccc(F)c4)[nH]n3)ncnc2c1 [AZD2811] (first compound max 1 µM, 7x7, partner max 1 µM), the Bliss excess was 0.041 in assay [1]; 0.0626 in assay [2]; -0.0113 in assay [3]; -0.0587 in assay [4]; -0.0332 in assay [5]; 0.052 in assay [6].
Consider `CN(C)CCCOc1ccc(-c2ccc3ncc4c(c3c2)n(C2CCOCC2)c(=O)n4C)cn1` [AZD0156] + C[C@@H]1COCCN1C2=NC(=NC(=C2)C3(CC3)[S@](=N)(=O)C)C4=C5C=CNC5=NC=C4 [AZD6738] (first compound max 1 µM, 7x7, partner max 10 µM), for which the Bliss excess in assay [1] is 0.0261; in assay [2], 0.0537; in assay [3] it was 0.0054; in assay [4], 0.0625; in assay [5] it was -0.0315; in assay [6] it was 0.0318.
As to `C=CCn1c(=O)c2cnc(Nc3ccc(N4CCN(C)CC4)cc3)nc2n1-c1cccc(C(C)(C)O)n1` [AZD1775] + C[C@@H]1COCCN1C2=NC(=NC(=C2)C3(CC3)[S@](=N)(=O)C)C4=C5C=CNC5=NC=C4 [AZD6738] (first compound max 1 µM, partner max 10 µM), the Bliss excess in assay [1] is 0.0437; in assay [2], 0.0676; in assay [3], 0.0459; in assay [4] it was 0.0581; in assay [5] it was -0.032; in assay [6], 0.0266.
With `C=CCn1c(=O)c2cnc(Nc3ccc(N4CCN(C)CC4)cc3)nc2n1-c1cccc(C(C)(C)O)n1` [AZD1775] + O=C(c1cc(Cc2n[nH]c(=O)c3ccccc23)ccc1F)N1CCN(C(=O)C2CC2)CC1 [Olaparib] (first compound max 1 µM, partner max 10 µM), the Bliss excess in assay [1] is -0.0561; in assay [2], -0.0303; in assay [3] it was 0.0277; in assay [4], 0.0223; in assay [5], -0.0441; in assay [6], -0.0247.
With `CCN(CCO)CCCOc1ccc2c(Nc3cc(CC(=O)Nc4cccc(F)c4)[nH]n3)ncnc2c1` [AZD2811] + C=CCn1c(=O)c2cnc(Nc3ccc(N4CCN(C)CC4)cc3)nc2n1-c1cccc(C(C)(C)O)n1 [AZD1775] (first compound max 1 µM, partner max 1 µM), the Bliss excess is -0.0606 in assay [1]; 0.0047 in assay [2]; 0.0224 in assay [3]; 0.015 in assay [4]; 0.0198 in assay [5]; -0.012 in assay [6].
For `CCN(CCO)CCCOc1ccc2c(Nc3cc(CC(=O)Nc4cccc(F)c4)[nH]n3)ncnc2c1` [AZD2811] + C[C@@H]1COCCN1C2=NC(=NC(=C2)C3(CC3)[S@](=N)(=O)C)C4=C5C=CNC5=NC=C4 [AZD6738] (first compound max 1 µM, 7x7, partner max 10 µM), the Bliss excess in assay [1] was -0.0187; in assay [2] it was -0.0165; in assay [3], -0.0107; in assay [4], -0.0514; in assay [5], -0.0583; in assay [6], -0.0763.
Take `CCN(CCO)CCCOc1ccc2c(Nc3cc(CC(=O)Nc4cccc(F)c4)[nH]n3)ncnc2c1` [AZD2811] + O=C(c1cc(Cc2n[nH]c(=O)c3ccccc23)ccc1F)N1CCN(C(=O)C2CC2)CC1 [Olaparib] (first compound max 1 µM, 7x7, partner max 10 µM): the Bliss excess in assay [1] is 0.015; in assay [2] it was 0.0347; in assay [3] it was 0.0203; in assay [4] it was -0.0882; in assay [5], -0.0232; in assay [6], 0.0677.
Take `CN(CCO)CC[C@H](CSc1ccccc1)Nc1ccc(S(=O)(=O)NC(=O)c2ccc(N3CCC([C@@H](O)c4ccccc4-c4ccc(Cl)cc4)CC3)cc2)cc1S(=O)(=O)C(F)(F)F` [AZD4320] + C1CN(CCC1(C(=O)N[C@@H](CCO)C2=CC=C(C=C2)Cl)N)C3=NC=NC4=C3C=CN4 [Capivasertib] (first compound max 1 µM, 7x7, partner max 3 µM): the Bliss excess in assay [1] is -0.0088; in assay [2], -0.0268; in assay [3] it was -0.0072; in assay [4] it was 0.0316; in assay [5], -0.0476; in assay [6], -0.0904.
Regarding `CN(CCO)CC[C@H](CSc1ccccc1)Nc1ccc(S(=O)(=O)NC(=O)c2ccc(N3CCC([C@@H](O)c4ccccc4-c4ccc(Cl)cc4)CC3)cc2)cc1S(=O)(=O)C(F)(F)F` [AZD4320] + C=CCn1c(=O)c2cnc(Nc3ccc(N4CCN(C)CC4)cc3)nc2n1-c1cccc(C(C)(C)O)n1 [AZD1775] (first compound max 1 µM, partner max 1 µM), the Bliss excess in assay [1] is 0.0457; in assay [2], 0.0213; in assay [3], 0.0562; in assay [4], 0.0462; in assay [5], 0.0006; in assay [6] it was -0.0252.
Consider `CN(CCO)CC[C@H](CSc1ccccc1)Nc1ccc(S(=O)(=O)NC(=O)c2ccc(N3CCC([C@@H](O)c4ccccc4-c4ccc(Cl)cc4)CC3)cc2)cc1S(=O)(=O)C(F)(F)F` [AZD4320] + CCN(CCO)CCCOc1ccc2c(Nc3cc(CC(=O)Nc4cccc(F)c4)[nH]n3)ncnc2c1 [AZD2811] (first compound max 1 µM, 7x7, partner max 1 µM), for which the Bliss excess in assay [1] is 0.128; in assay [2] it was 0.0014; in assay [3], -0.0338; in assay [4], -0.0505; in assay [5], -0.0263; in assay [6] it was -0.0532.
Regarding `CN(CCO)CC[C@H](CSc1ccccc1)Nc1ccc(S(=O)(=O)NC(=O)c2ccc(N3CCC([C@@H](O)c4ccccc4-c4ccc(Cl)cc4)CC3)cc2)cc1S(=O)(=O)C(F)(F)F` [AZD4320] + CN(C)CCCOc1ccc(-c2ccc3ncc4c(c3c2)n(C2CCOCC2)c(=O)n4C)cn1 [AZD0156] (first compound max 1 µM, 7x7, partner max 1 µM), the Bliss excess is 0.0221 in assay [1]; -0.01 in assay [2]; 0.0099 in assay [3]; -0.0002 in assay [4]; -0.0001 in assay [5]; -0.0636 in assay [6].
Consider `CN(CCO)CC[C@H](CSc1ccccc1)Nc1ccc(S(=O)(=O)NC(=O)c2ccc(N3CCC([C@@H](O)c4ccccc4-c4ccc(Cl)cc4)CC3)cc2)cc1S(=O)(=O)C(F)(F)F` [AZD4320] + C[C@@H]1COCCN1C2=NC(=NC(=C2)C3(CC3)[S@](=N)(=O)C)C4=C5C=CNC5=NC=C4 [AZD6738] (first compound max 1 µM, 7x7, partner max 10 µM), for which the Bliss excess was -0.0534 in assay [1]; -0.0165 in assay [2]; -0.0108 in assay [3]; 0.0178 in assay [4]; 0.0169 in assay [5]; 0.0029 in assay [6].
In the case of `CN(CCO)CC[C@H](CSc1ccccc1)Nc1ccc(S(=O)(=O)NC(=O)c2ccc(N3CCC([C@@H](O)c4ccccc4-c4ccc(Cl)cc4)CC3)cc2)cc1S(=O)(=O)C(F)(F)F` [AZD4320] + C[C@@H](Nc1cc(F)cc(F)c1)c1cc(C(=O)N(C)C)cc2c(=O)cc(N3CCOCC3)oc12 [AZD8186] (first compound max 1 µM, 7x7, partner max 3 µM), the Bliss excess in assay [1] is 0.0851; in assay [2], 0.041; in assay [3], 0.0229; in assay [4], 0.0281; in assay [5], 0.0082; in assay [6], -0.0351.
As to `CN(CCO)CC[C@H](CSc1ccccc1)Nc1ccc(S(=O)(=O)NC(=O)c2ccc(N3CCC([C@@H](O)c4ccccc4-c4ccc(Cl)cc4)CC3)cc2)cc1S(=O)(=O)C(F)(F)F` [AZD4320] + Cc1cc2ncnn2cc1Nc1ncc2c(n1)n(C1CCOCC1)c(=O)n2C [AZD7648] (first compound max 1 µM, 7x7, partner max 10 µM), the Bliss excess in assay [1] was 0.0418; in assay [2], -0.016; in assay [3], 0.0221; in assay [4], 0.0292; in assay [5] it was -0.0299; in assay [6], -0.0326.
In the case of `CN(CCO)CC[C@H](CSc1ccccc1)Nc1ccc(S(=O)(=O)NC(=O)c2ccc(N3CCC([C@@H](O)c4ccccc4-c4ccc(Cl)cc4)CC3)cc2)cc1S(=O)(=O)C(F)(F)F` [AZD4320] + Cn1cnc2c(F)c(Nc3ccc(Br)cc3Cl)c(C(=O)NOCCO)cc21 [Selumetinib] (first compound max 1 µM, 7x7, partner max 3 µM), the Bliss excess in assay [1] was 0.0683; in assay [2], 0.183; in assay [3], 0.0414; in assay [4], -0.0039; in assay [5] it was 0.0288; in assay [6] it was -0.0301.
With `COc1nnc2ccc(N3CCC(c4ccc(OCCN5CCN(C)C(=O)[C@H]5C)cc4)CC3)nn12` [AZD5153] + CN(CC[C@H](CSC1=CC=CC=C1)NC2=C(C=C(C=C2)S(=O)(=O)NC(=O)C3=CC=C(C=C3)N4CCC(CC4)[C@H](C5=CC=CC=C5C6=CC=C(C=C6)Cl)O)S(=O)(=O)C(F)(F)F)CCO [AZD4320] (first compound max 1 µM, 7x7, partner max 1 µM), the Bliss excess in assay [2] turned out to be 0.0146; in assay [4], 0.107; in assay [6] it was 0.0194.
As for `Cc1c2c(nn1C)CSCc1cc(n(C)n1)CSc1cc(c3ccccc3c1)OCCCc1c(C(=O)O)n(C)c3c-2c(Cl)ccc13` [AZD5991] + C1CN(CCC1(C(=O)N[C@@H](CCO)C2=CC=C(C=C2)Cl)N)C3=NC=NC4=C3C=CN4 [Capivasertib] (first compound max 1 µM, 7x7, partner max 3 µM), the Bliss excess was -0.0121 in assay [1]; 0.0213 in assay [2]; 0.0308 in assay [3]; 0.0419 in assay [4]; 0.0039 in assay [5]; 0.042 in assay [6].
For `Cc1c2c(nn1C)CSCc1cc(n(C)n1)CSc1cc(c3ccccc3c1)OCCCc1c(C(=O)O)n(C)c3c-2c(Cl)ccc13` [AZD5991] + CCN(CCO)CCCOc1ccc2c(Nc3cc(CC(=O)Nc4cccc(F)c4)[nH]n3)ncnc2c1 [AZD2811] (first compound max 1 µM, 7x7, partner max 1 µM), the Bliss excess is 0.0578 in assay [1]; 0.132 in assay [2]; 0.0233 in assay [3]; 0.0255 in assay [5]; 0.0912 in assay [6].
Turning to `CC(=O)c1c(C)c2cnc(Nc3ccc(N4CCNCC4)cn3)nc2n(C2CCCC2)c1=O` [Palbociclib] + CN(CC[C@H](CSC1=CC=CC=C1)NC2=C(C=C(C=C2)S(=O)(=O)NC(=O)C3=CC=C(C=C3)N4CCC(CC4)[C@H](C5=CC=CC=C5C6=CC=C(C=C6)Cl)O)S(=O)(=O)C(F)(F)F)CCO [AZD4320] (first compound max 10 µM, 7x7, partner max 1 µM), the Bliss excess in assay [2] was -0.137; in assay [4] it was -0.0065; in assay [6], -0.0091.
Take `CCc1c2c(nc3ccc(O)cc13)-c1cc3c(c(=O)n1C2)COC(=O)[C@]3(O)CC` [SN-38] + O=C(c1cc(Cc2n[nH]c(=O)c3ccccc23)ccc1F)N1CCN(C(=O)C2CC2)CC1 [Olaparib] (first compound max 0.3 µM, 7x7, partner max 10 µM): the Bliss excess in assay [1] was 0.0082; in assay [2], 0.086; in assay [3] it was -0.0724; in assay [4] it was 0.0477; in assay [5], 0.0111.
Turning to `C[C@@H](c1ccc2nccn2c1)n1nnc2ncc(-c3cnn(C)c3)nc21` [Savolitinib] + CN(CC[C@H](CSC1=CC=CC=C1)NC2=C(C=C(C=C2)S(=O)(=O)NC(=O)C3=CC=C(C=C3)N4CCC(CC4)[C@H](C5=CC=CC=C5C6=CC=C(C=C6)Cl)O)S(=O)(=O)C(F)(F)F)CCO [AZD4320] (first compound max 1 µM, 7x7, partner max 1 µM), the values for the Bliss excess in assay [2], in assay [4] and in assay [6] were -0.0378, 0.112 and -0.0203, respectively.

Source of the values: the supplement of paper PMC11061612.
